The values below come from PMC8312697, “Mechanistic Investigations Support Liver Safety of Ubrogepant” (Toxicological Sciences, 2020).

Data set [1] has as its system clinical trial participants. Set-up: cases of ALT or AST ≥ 3× ULN: unit not given here. The note with it: cited from earlier work.
The target of another data set is T1, BSEP (Homo sapiens, UniProt O95342).
T1 construct: Solvo Biotechnology (Szeged, Hungary), contract laboratory that ran the assay
Nature of the data set: BSEP vesicular transport inhibition assay. The conditions noted are these: for Vmax of taurocholate: BSEP vesicle assay; for alpha (mixed inhibition model): BSEP; for BSEP inhibition type: from Km and Vmax changes / model fit; for inhibition of BSEP-mediated probe substrate transport: vesicular transport inhibition assay. Type of data set: biochemical. As to the method:
These assays were conducted by Solvo Biotechnology and overseen by DSSI.
(§1) To assess the functional impact of ubrogepant on the human ABC efflux transporters BSEP, MRP3, and MRP4, in vitro vesicular transport inhibition assays were conducted by Solvo Biotechnology (Szeged, Hungary). The ability of ubrogepant to inhibit the BSEP-mediated transport (and accumulation) of a probe substrate was tested at concentrations ranging from 0.04 – 30 μM, where the latter defined the upper limit of compound solubility in the BSEP assay buffer. For the MRP3 and MRP4 vesicle-based transporter assessments, ubrogepant concentrations of 0.1 to 70 μM were used. To assess the functional impact of ubrogepant on the human SLC (uptake) transporter NTCP, in vitro experiments were performed using HEK293 cells stably expressing NTCP. The ability of ubrogepant to inhibit NTCP-mediated uptake (and accumulation) of taurocholate was tested at concentrations ranging from 0.04 – 30 μM.
In the current project, additional assays were conducted to determine the Ki value and inhibition type for ubrogepant for BSEP-mediated bile acid transport. These assays were conducted by Solvo Biotechnology and overseen by DSSI. Briefly, BSEP inhibition studies were performed with multiple substrate concentrations (0.39 – 50 µM taurocholate) and multiple inhibitor concentrations (0.5 – 30 µM ubrogepant). Ki and inhibition type for ubrogepant were determined by fitting a mixed inhibition model to the untransformed data by nonlinear regression analysis. It was assumed that inhibition type for ubrogepant for other transporters (i.e., MRP3 and MRP4) was mixed with α= 5; this is a typical value for bile acid transporter inhibitors in the experience of the DSS team.
(§2) To assess the functional impact of MK-3207 on the human ABC efflux transporters BSEP, MRP3 and MRP4, in vitro vesicular transport inhibition assays were conducted by Solvo Biotechnology (Szeged, Hungary) and overseen by DSSI. BSEP transport was assessed in the presence of 0.5-30 µM MK-3207; MRP3 and MRP4 transport was assessed in the presence of 0.11-80 µM MK-3207. The upper limits of these ranges were determined by compound solubility in each assay buffer. NTCP transporter inhibition was assessed in NTCP-expressing HEK293 cells in the presence of 0.03 – 25 µM MK-3207.
In these experiments, taurocholic acid (TCA) transport was assessed at a range of MK-3207 concentrations (0.04 – 30 µM) as well as at a range of TCA media concentrations (0.39 – 50 µM). A Ki was then determined by fitting a mixed inhibition model to the inhibition data by nonlinear regression analysis.

Another data set concerns the target T2, MRP4 (Homo sapiens, UniProt O15439).
T2 construct: Solvo Biotechnology (Szeged, Hungary), contract laboratory that ran the assay
T2 sequence (O15439 1-1325): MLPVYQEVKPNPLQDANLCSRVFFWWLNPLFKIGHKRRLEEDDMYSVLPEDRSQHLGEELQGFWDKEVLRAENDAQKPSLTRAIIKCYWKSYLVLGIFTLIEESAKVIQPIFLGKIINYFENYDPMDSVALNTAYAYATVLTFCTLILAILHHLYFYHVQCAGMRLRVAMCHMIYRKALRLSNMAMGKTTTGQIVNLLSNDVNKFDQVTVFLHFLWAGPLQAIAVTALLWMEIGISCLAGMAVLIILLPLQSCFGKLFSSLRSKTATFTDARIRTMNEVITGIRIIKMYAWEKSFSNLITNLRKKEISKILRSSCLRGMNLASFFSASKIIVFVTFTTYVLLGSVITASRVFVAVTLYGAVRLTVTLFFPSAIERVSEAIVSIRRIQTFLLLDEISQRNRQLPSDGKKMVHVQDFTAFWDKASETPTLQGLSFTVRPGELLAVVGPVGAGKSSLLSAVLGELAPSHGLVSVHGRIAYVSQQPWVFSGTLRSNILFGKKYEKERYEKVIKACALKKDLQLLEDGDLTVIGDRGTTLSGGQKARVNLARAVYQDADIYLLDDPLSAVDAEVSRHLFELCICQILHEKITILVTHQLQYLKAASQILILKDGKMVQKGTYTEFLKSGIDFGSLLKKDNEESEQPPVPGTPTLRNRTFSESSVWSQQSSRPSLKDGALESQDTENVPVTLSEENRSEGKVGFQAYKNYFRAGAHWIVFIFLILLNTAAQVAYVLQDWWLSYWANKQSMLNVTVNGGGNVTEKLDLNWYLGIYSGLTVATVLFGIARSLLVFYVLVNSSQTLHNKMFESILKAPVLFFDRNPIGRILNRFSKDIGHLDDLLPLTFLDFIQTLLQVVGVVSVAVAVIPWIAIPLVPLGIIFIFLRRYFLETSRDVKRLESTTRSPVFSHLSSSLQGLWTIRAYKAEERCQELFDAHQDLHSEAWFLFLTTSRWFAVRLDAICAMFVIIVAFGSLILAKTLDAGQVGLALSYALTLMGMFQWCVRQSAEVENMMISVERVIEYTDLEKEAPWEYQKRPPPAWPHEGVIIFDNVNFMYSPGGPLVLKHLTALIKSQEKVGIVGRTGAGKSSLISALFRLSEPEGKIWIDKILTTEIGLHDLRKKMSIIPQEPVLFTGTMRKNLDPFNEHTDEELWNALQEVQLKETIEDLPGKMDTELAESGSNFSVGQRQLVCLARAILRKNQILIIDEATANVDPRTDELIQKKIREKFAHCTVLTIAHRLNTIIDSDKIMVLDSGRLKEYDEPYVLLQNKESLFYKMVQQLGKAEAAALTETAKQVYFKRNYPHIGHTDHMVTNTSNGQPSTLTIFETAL
Nature of the data set: MRP4 vesicular transport inhibition assay. The class given is biochemical. The conditions noted are these: for inhibition of MRP4-mediated probe substrate transport: vesicular transport inhibition assay. As to the method: as §1, §2
IC50 values for MK-3207 were calculated for each of the transporters; these values were used as inputs into DILIsym. It was assumed that inhibition type for MK-3207 for MRP3 and MRP4 was mixed with α= 5; this is a typical value for bile acid transporter inhibitors in the experience of the DSS team.

Where [2] appears, read: mixed inhibition model, nonlinear regression.
[3] abbreviates: among the 5 patients with ALT > 3-fold ULN at > 500 mg daily, ref Hargreaves and Olesen, 2019, Hewitt et al., 2011.

Like-named read-outs stand apart in the source and are kept apart here. A value given as a limit tells only on which side of the number the result lay.

T1 sequence (O95342 whole entry): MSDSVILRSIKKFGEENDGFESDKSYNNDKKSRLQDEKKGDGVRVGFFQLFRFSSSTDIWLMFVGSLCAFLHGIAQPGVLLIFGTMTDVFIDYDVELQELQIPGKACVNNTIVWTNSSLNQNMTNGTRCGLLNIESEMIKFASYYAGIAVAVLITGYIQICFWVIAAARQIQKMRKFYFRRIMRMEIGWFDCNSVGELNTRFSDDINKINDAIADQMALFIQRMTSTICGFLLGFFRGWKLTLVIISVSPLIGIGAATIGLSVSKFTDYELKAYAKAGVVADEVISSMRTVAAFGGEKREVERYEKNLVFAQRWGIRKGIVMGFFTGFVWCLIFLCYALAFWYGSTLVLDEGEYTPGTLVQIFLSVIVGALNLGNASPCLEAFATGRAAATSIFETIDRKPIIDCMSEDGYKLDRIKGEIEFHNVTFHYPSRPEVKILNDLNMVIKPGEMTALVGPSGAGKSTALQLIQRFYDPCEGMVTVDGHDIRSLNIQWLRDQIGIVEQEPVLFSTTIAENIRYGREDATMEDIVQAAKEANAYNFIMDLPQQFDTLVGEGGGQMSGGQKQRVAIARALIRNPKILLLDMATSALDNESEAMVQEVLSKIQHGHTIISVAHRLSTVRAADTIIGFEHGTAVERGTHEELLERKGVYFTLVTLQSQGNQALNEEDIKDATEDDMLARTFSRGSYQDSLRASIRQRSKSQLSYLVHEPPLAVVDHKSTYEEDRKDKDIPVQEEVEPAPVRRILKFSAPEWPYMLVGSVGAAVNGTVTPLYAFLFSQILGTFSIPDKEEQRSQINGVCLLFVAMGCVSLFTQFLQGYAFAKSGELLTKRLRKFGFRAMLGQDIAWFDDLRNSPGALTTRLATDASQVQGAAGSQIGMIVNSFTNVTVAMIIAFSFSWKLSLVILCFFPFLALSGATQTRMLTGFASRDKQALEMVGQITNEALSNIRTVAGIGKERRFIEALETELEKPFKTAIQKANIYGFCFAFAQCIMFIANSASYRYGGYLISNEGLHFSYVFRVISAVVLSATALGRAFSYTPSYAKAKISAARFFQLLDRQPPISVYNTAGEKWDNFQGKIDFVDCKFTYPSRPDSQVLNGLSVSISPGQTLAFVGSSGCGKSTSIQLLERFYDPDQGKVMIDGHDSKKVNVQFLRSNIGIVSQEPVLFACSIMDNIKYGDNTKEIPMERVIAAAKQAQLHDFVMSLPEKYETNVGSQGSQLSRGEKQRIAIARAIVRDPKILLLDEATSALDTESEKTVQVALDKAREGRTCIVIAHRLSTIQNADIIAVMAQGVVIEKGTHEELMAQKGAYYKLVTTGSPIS

What is called Ki is the dissociation constant of the complex between target and ligand, obtained from inhibition or displacement. In general, IC50 refers to the concentration needed to halve the response being measured. As to `O=C(N[C@@H]1CC[C@@H](c2cccc(F)c2F)CN(CC(F)(F)F)C1=O)N1CCC(n2c(=O)[nH]c3ncccc32)CC1` [Telcagepant], the “Clinical ALT > 3× ULN” value in data set [1] (140 mg BID 12 weeks, ref Ho et al., 2014) was 1.9% (5/258) ([Ho et al., 2014]); in data set [1] (140 mg BID 12 weeks, ref Ho et al., 2014, listed as telcagepant) it was 1.9%; in data set [1] (280 mg BID 12 weeks, ref Ho et al., 2014), 3.2%. Further, the Vmax of taurocholate at BSEP (inhibitor 2.5 µM) is given as 186.3 pmol/mg protein/min; at BSEP (inhibitor 5 µM), 208.1 pmol/mg protein/min; on BSEP (inhibitor 10 µM) it was 77.52 pmol/mg protein/min; on BSEP (inhibitor 20 µM) it was 119.7 pmol/mg protein/min. In addition, the “alpha (mixed inhibition model)” value at BSEP (mixed inhibition model) turned out to be 4.6. Besides, the BSEP inhibition type result at BSEP was “likely to be a mixed BSEP inhibitor”. The Ki at BSEP (setting [2]) was 7.9 µM. The “inhibition of BSEP-mediated probe substrate transport” value against BSEP was “inhibited”. Besides, the IC50 is 10.2 µM on BSEP (vesicular transport, taurocholate, read-out: BSEP estimated IC50) and no less than 16.9 µM at MRP4 (curve fitting assuming maximum inhibition at higher concentrations is 100%, read-out: MRP4 estimated lowest possible IC50). At BSEP (vesicular transport, up to 20 µM), the BSEP inhibition is given as greater than 50%. Also, the inhibition at 20 µM on MRP4 (human, membrane vesicles with MRP4 (vesicular transport assay), read-out: maximum inhibition at the highest concentration tested, MRP4) is less than 50%. For the same molecule, on MRP4, the “inhibition of MRP4-mediated probe substrate transport” value is reported as “inhibited”.
On to `O=C(CN1C(=O)C2(CCCC2)NC[C@H]1c1cc(F)cc(F)c1)Nc1ccc2c(c1)C[C@@]1(C2)C(=O)Nc2ncccc21` [MK-3207], for which the “patients symptomatic with Hy’s law” value in data set [1] (setting [3]) was 1. In data set [1] (setting [3]), the “patients with > 20-fold ALT rises” value was 3. In addition, the “Clinical ALT > 3× ULN” value in data set [1] (daily doses > 500 mg, individuals dosed for more than 1 week, most responding given 600–900 mg per day, ref Hargreaves and Olesen, 2019, Hewitt et al., 2011) is reported as 42% (5/12) among individuals dosed for more than 1 week; most responding were given 600–900 mg per day. Besides, in data set [1] (daily doses of < 100 mg, ref Hargreaves and Olesen, 2019, Hewitt et al., 2011), the “ALT > 3-fold ULN after 2 weeks” value is recorded as 1%. In addition, the Vmax of taurocholate at BSEP (inhibitor 0.5 µM) came out at 171.9 pmol/mg protein/min; at BSEP (inhibitor 2.5 µM), 183.1 pmol/mg protein/min; on BSEP (inhibitor 5 µM), 174.9 pmol/mg protein/min; on BSEP (inhibitor 15 µM), 132.5 pmol/mg protein/min; on BSEP (inhibitor 30 µM), 151.7 pmol/mg protein/min. The Ki at BSEP (competitive inhibition model) turned out to be 7.62 µM. In addition, at BSEP, the BSEP inhibition type result is recorded as “competitive model is presumed to be the most likely mode of inhibition”. In addition, the “inhibition of BSEP-mediated probe substrate transport” value on BSEP was “inhibited”. In addition, the “inhibition of MRP4-mediated probe substrate transport” value on MRP4 was “No inhibition was observed”.
In the case of `C[C@@H]1[C@H](c2ccccc2)C[C@H](NC(=O)c2cnc3c(c2)C[C@@]2(C3)C(=O)Nc3ncccc32)C(=O)N1CC(F)(F)F` [Ubrogepant], the “ALT/AST ≥ 3-fold ULN, number of participants” value in data set [1] (100 mg QD 2 days on, 2 days placebo, alternating, 8 weeks, healthy adults, n = 256, ref Goadsby et al., 2019) is listed as 2. Further, the “cases of ALT or AST ≥ 3× ULN” value in data set [1] (52-week long-term extension trial, 1230 people, ref Ailani et al., 2019) is listed as 20. Moreover, the Vmax of taurocholate at BSEP (inhibitor 0.5 µM) is recorded as 181.3 pmol/mg protein/min; at BSEP (inhibitor 2.5 µM) it was 175.6 pmol/mg protein/min; on BSEP (inhibitor 5 µM) it was 171.3 pmol/mg protein/min; on BSEP (inhibitor 15 µM), 171.9 pmol/mg protein/min; at BSEP (inhibitor 30 µM), 172.3 pmol/mg protein/min. Also, on BSEP (mixed inhibition model), the “alpha (mixed inhibition model)” value turned out to be 8.39. Besides, the BSEP inhibition type result at BSEP is listed as “likely to be a mixed BSEP inhibitor”. Besides, the Ki at BSEP (setting [2]) came to 38.1 µM. Further, the “inhibition of BSEP-mediated probe substrate transport” value at BSEP is “inhibited”. The inhibition at 70 µM on MRP4 (human, membrane vesicles with MRP4 (vesicular transport assay), 70 µM (solubility limit), read-out: maximum inhibition at the highest concentration tested, MRP4) was less than 50%. Further, the “inhibition of MRP4-mediated probe substrate transport” value against MRP4 was “did not inhibit MRP4”.
